Results as given in publication PMC3199744, “Preformulation and stability in biological fluids of the retrocyclin RC-101, a potential anti-HIV topical microbicide” (AIDS Research and Therapy, 2011).

Experiments:
[1] = Oxidation of RC-101 by hydrogen peroxide, HPLC; details: EDTA 1.0 μg/mL, H2O2 0.002%, RC-101 500 μg/mL, HPLC over time
Description: For all pre-formulation studies described below, triplicate solutions of RC-101 (500 μg/mL) were prepared in either water or aqueous buffer solution. Thermal degradation studies were conducted at 25, 37, and 65°C for a minimum period of 1 week. The effect of pH on the stability of RC-101 was evaluated over the pH range from 3 to 12 using 10 mM phosphate buffer solutions, at low (50 mmol/kg) and high (500 mmol/kg) ionic strength. Oxidation of RC-101 was evaluated by exposing a solution of RC-101 to hydrogen peroxide (H2O2) at concentrations of 3.0, 0.08, and 0.002% (v/v). The high H2O2 concentration (3.0%) was selected as a forced degradation concentration. […] Protection against oxidation was investigated by the addition of antioxidants commonly used in pharmaceutical products. The antioxidants used in this study were: methionine (95.2 μg/mL or 250 μg/mL), cysteine (95.2 μg/mL), glutathione (90.9 μg/mL), vitamin E TPGS (90.9 μg/mL), ascorbic acid (1.0 mg/mL), sodium ascorbate (1.0 mg/mL), and EDTA (1.0 μg/mL).
RC-101 concentration after exposure to preformulation conditions was analyzed by HPLC as previously described [11]. Briefly, the HPLC system (Waters Corporation, Milford, MA) was equipped with an autoinjector model 717, a quaternary pump model 600, and an ultraviolet (UV) detector model 2487 set up at 215 nm. Separation of RC-101 from degradant products was achieved using a Phenomenex Jupiter 5 μC5 300 Å (4.6 × 250 mm) column (Phenomenex, Torrance, CA) protected by a Widepore C5 (4 × 3.0 mm) guard cartridge (Phenomenex). The gradient consisted of mobile phase A (0.1% TFA in water (v/v)), and mobile phase B (0.07% TFA in acetonitrile (v/v)) pumped at a flow rate of 1.0 mL/min. […]
HPLC data obtained from the preformulation studies were expressed as the average percentage of the peak area from time 0 ± standard deviation, n = 3. Results were analyzed by one-way analysis of variance (ANOVA) with multiple comparisons of individual time points by using post hoc Bonferroni correction to detect significant differences under different conditions. […]

[2] = test system: normal vaginal microflora; details: preliminary studies, data not shown
[3] = test system: human ectocervical tissue; details: preliminary studies, data not shown

- protection of RC-101 against oxidation after exposure to H2O2 [1]: protection
Structure (SMILES): O=C(O)CN(CCN(CC(=O)O)CC(=O)O)CC(=O)O [EDTA, Ethylenediamine tetraacetic acid]
- toxic concentration [2]: ≥ 1%
- toxic concentration [3]: ≥ 1%
